Laboratory results as given in patent publication US8227478B2, “JNK modulators” (Roche Palo Alto LLC, priority 2008, dated 2012).
pIC50: −log10 of the molar value. Where “and” joins values, the source holds several entries; their conditions need not be identical. Identical values can stand only once.

How the values were obtained:
Human JNK1α1 = Human JNK1α1 (Homo sapiens, UniProt P45983); experiment: JNK assay in vitro, phosphorylation of GST-ATF2 (19-96) with [γ-33P] ATP; type: biochemical; settings: Human JNK1α1, 2 nM enzyme, 1 μM ATF2, 6 μM ATP (Km); read-out: JNK1 - IC50
Sequence of Human JNK1α1 (P45983 1-384 isoform P45983-2): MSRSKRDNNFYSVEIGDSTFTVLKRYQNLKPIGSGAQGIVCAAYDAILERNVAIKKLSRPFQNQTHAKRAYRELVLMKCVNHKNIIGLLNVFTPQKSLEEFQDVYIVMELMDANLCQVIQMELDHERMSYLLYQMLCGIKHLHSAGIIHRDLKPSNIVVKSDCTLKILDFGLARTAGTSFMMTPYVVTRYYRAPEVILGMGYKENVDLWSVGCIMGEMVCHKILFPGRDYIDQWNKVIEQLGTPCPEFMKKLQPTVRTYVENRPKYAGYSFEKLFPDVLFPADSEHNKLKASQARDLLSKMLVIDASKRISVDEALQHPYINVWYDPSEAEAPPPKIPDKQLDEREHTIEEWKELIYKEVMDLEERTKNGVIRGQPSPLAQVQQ
Experimental: (§1) JNK activity was measured by phosphorylation of GST-ATF2 (19-96) with [γ-^33P] ATP. The enzyme reaction was conducted at Km concentrations of ATP and the substrate at final volume of 40 μl in buffer containing 25 mM HEPES, pH 7.5, 2 mM dithiothreitol, 150 mM NaCl, 20 mM MgCl2, 0.001% Tween® 20, 0.1% BSA and 10% DMSO. Human JNK2α2 assay contains 1 nM enzyme, 1 μM ATF2, 8 μM ATP with 1 uCi [γ-^33P] ATP. Human JNK1α1 assay contains 2 nM enzyme, 1 μM ATF2, 6 μM ATP with 1 μCi [γ-^33P] ATP. Human JNK3 (Upstate Biotech #14-501M) assay contains 2 nM enzyme, 1 μM ATF2, 4 μM ATP with 1 μCi [γ-^33P] ATP. The enzyme assay was carried out in the presence or absence of several compound concentrations. JNK and compound were pre-incubated for 10 min., followed by initiation of the enzymatic reaction by adding ATP and the substrate. The reaction mixture was incubated at 30° C. for 30 min. At the end of incubation, the reaction was terminated by transferring 25 μl of the reaction mixture to 150 μl of 10% glutathione Sepharose® slurry (Amersham #27-4574-01) containing 135 mM EDTA. The reaction product was captured on the affinity resin, and washed on a filtration plate (Millipore, MABVNOB50) with phosphate buffered saline for six times to remove free radionucleotide. The incorporation of ^33P into ATF2 was quantified on a microplate scintillation counter (Packard Topcount). Compound inhibition potency on JNK was measured by IC50 value generated from ten concentration inhibition curves fitted into the 3-parameter model: % inhibition=Maximum/(1+(IC50/[Inhibitor])^slope). Data were analyzed on Microsoft Excel for parameter estimation.

Human JNK2α2 = Human JNK2α2 (Homo sapiens, UniProt P45984); experiment: as above; type: biochemical; settings: Human JNK2α2, 1 nM enzyme, 1 μM ATF2, 8 μM ATP (Km); read-out: JNK2 - IC50
Sequence of Human JNK2α2 (P45984 whole entry): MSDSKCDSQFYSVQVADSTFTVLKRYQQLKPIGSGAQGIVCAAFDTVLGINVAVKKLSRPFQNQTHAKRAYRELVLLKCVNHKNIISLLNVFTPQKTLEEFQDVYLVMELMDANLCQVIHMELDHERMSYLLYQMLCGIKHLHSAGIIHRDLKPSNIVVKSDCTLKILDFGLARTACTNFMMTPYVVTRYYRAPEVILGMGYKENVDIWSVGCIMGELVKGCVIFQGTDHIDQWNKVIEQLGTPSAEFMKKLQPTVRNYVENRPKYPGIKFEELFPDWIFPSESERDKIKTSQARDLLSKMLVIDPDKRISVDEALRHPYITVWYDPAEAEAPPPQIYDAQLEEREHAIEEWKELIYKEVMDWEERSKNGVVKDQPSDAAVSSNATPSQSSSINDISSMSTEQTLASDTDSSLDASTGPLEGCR
Experimental: as §1

phospho-c-Jun = experiment: Phospho-c-Jun translocation assay in TNFα-activated SW1353 cells; type: cell-based; settings: Homo sapiens, TNFα 1 ng/ml for 20 min, 30 min compound pre-incubation
Source text: Inflammation is regulated in part by the action of c-Jun on other genes in the inflammatory pathway. Thus, inhibition of phosphorylated c-Jun translocation to the nucleus provides an indication of the anti-inflammatory activity of a compound. SW1353 cells were purchased from the American Tissue Culture Collection and maintained in growth media containing DMEM medium (Invitrogen) with 10% fetal bovine serum (Invitrogen), ascorbic acid (Sigma), and penicillin/streptomycin/[…] (Invitrogen) under culture conditions (at 37° C. with 5% CO2). Cells were plated at a density of 8,000 cells/well in 100 μl growth medium 24 h prior to the compound treatment. Immediately before the compound treatment, growth media was replaced with 90 μl of fresh media. Compound stock at 10 mM was first diluted in compound vehicle (DMSO) to 3 mM, then diluted in serum-free medium and added to each well as a 10× concentrated solution in a volume of 10 μl, mixed, and pre-incubated with cells for 30 min at 37° C. in 5% CO2. Compound vehicle (DMSO) was maintained at a final concentration of 1% for all samples. After 30 min incubation, the cells were activated with TNFα (1 ng/ml, Roche Biochem) for 20 min. Cells were then fixed, permeabilized, and stained with anti-phospho-c-Jun antibody (Santa Cruz), followed by Alexa Fluor 488 labeled secondary antibody and Hoechet 33342 dye (Invitrogen) per manufacturer's instructions. The signals of phospho-c-Jun were measured for 400 cells per well by the ArrayScan HCS system (Cellomic). The IC50 values were calculated as the concentration of the compound at which the phospho-c-Jun activity was inhibited to 50% of the control value using the 4-parameter fitting function in the ActivityBase program (IDBS).

pIC50 (Human JNK1α1) | pIC50 (Human JNK2α2) | pIC50 (phospho-c-Jun) | melting point | Compound
8.28 | 7.73 | 6.36 |  | Cc1n[nH]cc1-c1cccc2c1nnn2-c1ccnc(N[C@H]2CC[C@H](C(=O)N3CCC(O)CC3)CC2)n1 [Compound 11, (4-Hydroxy-piperidin-1-yl)-(4-{4-[4-(3-methyl-1H-pyrazol-4-yl)-benzotriazol-1-yl]-pyrimidin-2-ylamino}-cyclohexyl)-methanone]
7.48 | 7.01 | 5.08 | 168 to 188 °C | Cc1cscc1-c1cccc2c1ccn2-c1ccnc(N[C@H]2CC[C@H](C(=O)N3CCC(O)CC3)CC2)n1 [Compound 7, (4-Hydroxy-piperidin-1-yl)-(4-{4-[4-(4-methyl-thiophen-3-yl)-indol-1-yl]-pyrimidin-2-ylamino}-cyclohexyl)-methanone]
7.56 | 7.04 | 5.55 | 194.3 to 218.2 °C | Cc1ccncc1-c1cccc2c1nnn2-c1ccnc(N[C@H]2CC[C@H](C(=O)N3CCC(O)CC3)CC2)n1 [Compound 3, (4-Hydroxy-piperidin-1-yl)-(4-{4-[4-(4-methylpyirin-3-yl)-benzotriazol-1-yl]-pyrimidin-2-ylamino}-cyclohexyl)-methanone]
7.32 | 6.65 |  |  | Cc1noc(C)c1-c1cccc2c1ccn2-c1ccnc(N[C@H]2CC[C@H](C(=O)N3CCC(O)CC3)CC2)n1 [Compound 13, (4-{4-[4-(3,5-Dimethyl-isoxazol-4-yl)-indol-1-yl]-pyrimidin-2-ylamino}-cyclohexyl)-(4-hydroxy-piperidin-1-yl)-methanone]
7.54 | 7.04 | 5.24 | 266 to 267 °C | O=C([C@H]1CC[C@H](Nc2nccc(-n3nnc4c(-c5ccncc5)cccc43)n2)CC1)N1CCC(O)CC1 [Compound 8]
8.44 | 7.75 | 4.86 |  | Cc1cscc1-c1cccc2c1nnn2-c1ccnc(NC2CCN(S(C)(=O)=O)CC2)n1 [Compound 5, (1-Methanesulfonyl-piperidin-4-yl)-{4-[4-(4-methyl-thiophen-3-yl)-benzotriazol-1-yl]-pyrimidin-2-yl}-amine]
8.24 | 7.70 | 6.17 | 224 to 226 °C and 224.6 to 225.9 °C | Cc1ccccc1-c1cccc2c1nnn2-c1ccnc(N[C@H]2CC[C@H](C(=O)N3CCC(O)CC3)CC2)n1 [Compound 2, (4-Hydroxy-piperidin-1-yl)-{4-[4-(4-o-tolyl-benzotriazol-1-yl)-pyrimidin-2-ylamino]-cyclohexyl}-methanone]
7.50 | 6.92 | 5.59 | 215 to 220 °C | Cc1n[nH]cc1-c1cccc2c1ccn2-c1ccnc(N[C@H]2CC[C@H](C(=O)N3CCC(O)CC3)CC2)n1 [Compound 12, (4-Hydroxy-piperidin-1-yl)-(4-{4-[4-(3-methyl-1H-pyrazol-4-yl)-indol-1-yl]-pyrimidin-2-ylamino}-cyclohexyl)-methanone]
8.52 | 7.85 | 5.67 | 231 to 232 °C | Cc1n[nH]cc1-c1cccc2c1nnn2-c1ccnc(NC2CCN(S(C)(=O)=O)CC2)n1 [Compound 10, (1-Methanesulfonyl-piperidin-4-yl)-{4-[4-(3-methyl-1H-pyrazol-4-yl)-benzotriazol-1-yl]-pyrimidin-2-yl}-amine]
7.36 | 6.76 | 5.60 | 258 to 259 °C | O=C([C@H]1CC[C@H](Nc2nccc(-n3ccc4c(-c5ccncc5)cccc43)n2)CC1)N1CCC(O)CC1 [Compound 16, (4-Hydroxy-piperidin-1-yl)-{4-[4-(4-pyridin-4-yl-indol-1-yl)-pyrimidin-2-ylamino]-cyclohexyl}-methanone]
7.40 | 6.89 | ≤ 4.52 | 243 to 244 °C | O=C([C@H]1CC[C@H](Nc2nccc(-n3nnc4c(-c5ccoc5)cccc43)n2)CC1)N1CCC(O)CC1 [Compound 9, {4-[4-(4-Furan-3-yl-benzotriazol-1-yl)-pyrimidin-2-ylamino]-cyclohexyl}-(4-hydroxy-piperidin-1-yl)-methanone]
7.36 | 6.98 | 5.59 | > 300 °C | Cc1noc(C)c1-c1cccc2c1nnn2-c1ccnc(N[C@H]2CC[C@H](C(=O)N3CCC(O)CC3)CC2)n1 [Compound 4, (4-{4-[4-(3,5-Dimethylisoxazol-4-yl)-benzotriazol-1-yl]-pyrimidin-2-ylamino}-cyclohexyl)-(4-hydroxy-piperidin-1-yl)-methanone]
8.55 | 7.90 | 6.15 | 246 to 247 °C | Cc1cscc1-c1cccc2c1nnn2-c1ccnc(N[C@H]2CC[C@H](C(=O)N3CCC(O)CC3)CC2)n1 [Compound 1]
7.06 | 6.47 |  | 176 to 178 °C | Cc1ccncc1-c1cccc2c1ccn2-c1ccnc(N[C@H]2CC[C@H](C(=O)N3CCC(O)CC3)CC2)n1 [Compound 14, (4-Hydroxy-piperidin-1-yl)-(4-{4-[4-(4-methyl-pyridin-3-yl)-indol-1-yl]-pyrimidin-2-ylamino}-cyclohexyl)-methanone]
6.58 | 6.07 |  | 190 to 191 °C | O=C([C@H]1CC[C@H](Nc2nccc(-n3ccc4c(-c5ccccc5)cccc43)n2)CC1)N1CCC(O)CC1 [Compound 17, (4-Hydroxy-piperidin-1-yl)-{4-[4-(4-phenyl-indol-1-yl)-pyrimidin-2-ylamino]-cyclohexyl}-methanone]
7.69 | 7.17 | 5.48 | 233 to 234 °C | O=C([C@H]1CC[C@H](Nc2nccc(-n3nnc4c(-c5ccsc5)cccc43)n2)CC1)N1CCC(O)CC1 [Compound 6, (4-Hydroxy-piperidin-1-yl)-{4-[4-(4-thiophen-3-ylbenzotriazol-1-yl)-pyrimidin-2-ylamino]-cyclohexyl}-methanone]
7.19 | 6.66 |  | 158 to 160 °C | Cc1ccccc1-c1cccc2c1ccn2-c1ccnc(N[C@H]2CC[C@H](C(=O)N3CCC(O)CC3)CC2)n1 [Compound 15, (4-Hydroxy-piperidin-1-yl)-{4-[4-(4-o-tolyl-indol-1-yl)-pyrimidin-2-ylamino]-cyclohexyl}-methanone]
7.32 | 6.72 |  | 171 to 172 °C | O=C([C@H]1CC[C@H](Nc2nccc(-n3ccc4c(-c5ccsc5)cccc43)n2)CC1)N1CCC(O)CC1 [Compound 18, (4-hydroxy-piperidin-1-yl)-{4-[4-(4-thiophen-3-yl-indol-1-yl)-pyrimidin-2-ylamino]-cyclohexyl}-methanone]
